Measurements published in patent US8182815B2, “Fibroblast growth factor receptor-3 (FGFR-3) inhibitors and methods of treatment” (ImClone, LLC, priority 2008, dated 2012).

Experiments:
RT4 tumor = assay: RT4 xenograft, combination with cisplatin; details: Antibody 1 40 mg/kg three times weekly, cisplatin MTD
Protocol: (§1) The therapeutic benefit of combining cisplatin with FGFR-3 antibody in three bladder xenograft models is explored. Develop RT112, RT4 and BFTC905 xenograft tumor models by routine methods in which 1-20 million tumor cells mixed with 0-100% Matrigel are injected subcutaneously to each female athymic nude mouse. Start antibody treatment once the mean volume of the subcutaneous tumors is approximately 400 mm^2. […] Measure tumor volumes 3 times weekly until the end of the studies.
Conduct RM ANOVO statistical test.

RT-112 tumor = assay: RT112 xenograft, combination with cisplatin; details: Antibody 1 40 mg/kg three times weekly, cisplatin MTD
Protocol: as §1
Conduct RM ANOVO statistical test.

BFTC-905 tumor = assay: BFTC905 xenograft, combination with cisplatin; details: Antibody 1 40 mg/kg three times weekly, cisplatin MTD
Protocol: as §1
Conduct RM ANOVO statistical test.

[1] = biological target: T1, FGFR-3 (K650E) in OPM-2 cells (Homo sapiens, UniProt P22607, K650E); assay: FGFR-3 receptor degradation in OPM-2 cells (western blot); assay type: cell-based; details: 37° C., Antibody 1 30 ug/ml, FGF-1 30 ng/ml
T1 construct: endogenous in cells; host or cells: OPM-2
Protocol: OPM-2 is a cell line originally isolated from cancer cells of multiple myeloma. OPM-2 cells are known to express FGFR-3 receptors harboring a gain-of-function K650E point mutation. Quiesce the OPM-2 cells in low serum culture media (0.1% FBS) for overnight. The next day, divide these cells into 5 groups. Group 1 is lysed immediately, and the lysate is kept at −20° C. until the time of western blot analysis. This group is therefore designated as Time 0 hr sample. Group 2-5 each has 3 samples of equal size, named as Sample A, B and C of Group 2, 3, 4, and 5. Samples A of Group 2-5 are not subjected to any further treatment, but are incubated at 37° C. Samples B of Group 2-5 are treated with 30 ng/ml FGF-1 at 37° C. […] All samples of Group 2 are lysed after 1 hr of treatment, and the lysates are kept at −20° C. until the time of western blot analysis. This group is designated as the Time 1 hr samples. All samples of Group 3 are lysed after 4 hr of treatment, and the lysates are kept at −20° C. until the time of western blot analysis. This group is designated as the Time 4 hr samples. All samples of Group 4 are lysed after 8 hr of treatment, and the lysates are kept at −20° C. until the time of western blot analysis. This group is designated as Time 8 hr samples. All samples of Group 5 are lysed after 24 hr of treatment, and the lysates are kept at −20° C. until the time of western blot analysis. This group is designated as Time 24 hr samples. When all lysates are ready, they are subjected to SDS-PAGE followed by Western Blot experiment. The FGFR-3 signals of Group 1 and all samples of Group 2 are similar. […] In Group 5, the FGFR-3 signal of Sample A is lower than that of group 1; yet signals of Samples B and C are nearly absent.

RT112 cells = assay: RT112 cell proliferation assay (3H-thymidine incorporation); assay type: cell-based, human; details: 1 nM exogenous FGF-1, 48 hours
Protocol: Quiesce monolayer RT112 cells in low serum culture media (0.1% fetal bovine serum, 5 μg/mL heparin) for 24-72 hrs. Divide cells into 4 samples. Add FBS (Fetal Bovine Serum) to Sample 1 to the final concentration of 10% (V:V). Leave Sample 2 in the starving media. Add FGF-1 to Sample 3 to the final concentration of 1 nM. […] Next, add FGF-1 to the final concentration of 1 nM. After preparing Samples 1-4 as described above, incubate the samples in a tissue culture incubator set at 37° C. and with 5% CO2 (v:v) for 48 hours. Detect cell growth using standard ^3H-thymidine incorporation, assays. Tumor cell growth is doubled when RT112 cells […] are stimulated with 1 nM exogenous FGF-1.

T1 sequence (P22607 23-806 K650E): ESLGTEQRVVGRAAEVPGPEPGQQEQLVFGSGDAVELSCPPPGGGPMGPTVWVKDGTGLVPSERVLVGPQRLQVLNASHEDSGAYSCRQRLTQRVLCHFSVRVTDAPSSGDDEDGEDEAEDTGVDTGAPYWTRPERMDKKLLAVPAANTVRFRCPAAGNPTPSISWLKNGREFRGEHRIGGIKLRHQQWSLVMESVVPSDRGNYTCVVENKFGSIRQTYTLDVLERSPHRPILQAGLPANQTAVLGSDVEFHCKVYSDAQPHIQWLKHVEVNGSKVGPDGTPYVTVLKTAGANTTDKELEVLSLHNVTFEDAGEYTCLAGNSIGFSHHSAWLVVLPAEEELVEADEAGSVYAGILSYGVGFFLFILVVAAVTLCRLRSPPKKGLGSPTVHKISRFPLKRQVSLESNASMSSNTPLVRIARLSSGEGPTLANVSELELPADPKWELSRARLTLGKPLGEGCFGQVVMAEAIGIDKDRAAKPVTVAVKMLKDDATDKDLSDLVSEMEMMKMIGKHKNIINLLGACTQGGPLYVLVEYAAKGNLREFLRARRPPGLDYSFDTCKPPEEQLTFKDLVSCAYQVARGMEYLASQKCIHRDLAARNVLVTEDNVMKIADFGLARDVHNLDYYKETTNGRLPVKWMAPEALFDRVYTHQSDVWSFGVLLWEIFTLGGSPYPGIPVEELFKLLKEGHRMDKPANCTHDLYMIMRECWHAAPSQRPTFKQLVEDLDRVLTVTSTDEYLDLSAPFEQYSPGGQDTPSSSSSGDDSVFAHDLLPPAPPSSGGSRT

`N.N.[Cl][Pt][Cl]` [Cisplatin, cisplatin, reference compound] was tested, and the “RT4 Tumor Volumes, Average” value (RT4 tumor; Day 1) was 195.4 mm^3, the “RT4 Tumor Volumes, Average” value (RT4 tumor; Day 8) was 253.4 mm^3 and the “RT4 Tumor Volumes, Average” value (RT4 tumor; Day 15) was 374.0 mm^3. For the same compound, the “RT4 Tumor Volumes, Average” value (RT4 tumor; Day 22) was 511.9 mm^3, the “RT4 Tumor Volumes, Average” value (RT4 tumor; Day 29) was 675.8 mm^3 and the “RT4 Tumor Volumes, Average” value (RT4 tumor; Day 36) was 840.5 mm^3. The “RT4 Tumor Volumes, Average” value (RT4 tumor; Day 42) was 1024.5 mm^3, the “RT-112 Tumor Volumes, Average” value (RT-112 tumor; Day 1) was 175.7 mm^3 and the “RT-112 Tumor Volumes, Average” value (RT-112 tumor; Day 8) was 245.1 mm^3. The “RT-112 Tumor Volumes, Average” value (RT-112 tumor; Day 15) was 360.8 mm^3, the “RT-112 Tumor Volumes, Average” value (RT-112 tumor; Day 22) was 578.8 mm^3 and the “RT-112 Tumor Volumes, Average” value (RT-112 tumor; Day 29) was 739.4 mm^3. The “RT-112 Tumor Volumes, Average” value (RT-112 tumor; Day 36) was 881.6 mm^3, the “RT-112 Tumor Volumes, Average” value (RT-112 tumor; Day 42) was 1115.9 mm^3 and the “BFTC-905 Tumor Volumes, Average” value (BFTC-905 tumor; Day 0) was 192.1 mm^3. The “BFTC-905 Tumor Volumes, Average” value (BFTC-905 tumor; Day 3) was 211.4 mm^3, the “BFTC-905 Tumor Volumes, Average” value (BFTC-905 tumor; Day 7) was 243.4 mm^3 and the “BFTC-905 Tumor Volumes, Average” value (BFTC-905 tumor; Day 14) was 286.7 mm^3. The “BFTC-905 Tumor Volumes, Average” value (BFTC-905 tumor; Day 21) was 395.0 mm^3, the “BFTC-905 Tumor Volumes, Average” value (BFTC-905 tumor; Day 28) was 511.6 mm^3 and the “BFTC-905 Tumor Volumes, Average” value (BFTC-905 tumor; Day 35) was 615.5 mm^3. For the same compound, the “BFTC-905 Tumor Volumes, Average” value (BFTC-905 tumor; Day 42) was 829.6 mm^3.
“FGF-1: recombinant human FGF ligand, known to induce FGFR degradation” was tested, and the “FGFR-3 signal compared with Time 0 hr (Group 1)” value ([1]; Time 1 hr) was “similar”, the “FGFR-3 signal compared with Time 0 hr (Group 1)” value ([1]; Time 4 hr) was “significantly lower” and the “FGFR-3 signal compared with Time 0 hr (Group 1)” value ([1]; Time 8 hr) was “significantly lower”. For the same compound, the “FGFR-3 signal compared with Time 0 hr (Group 1)” value ([1]; Time 24 hr) was “nearly absent” and the “tumor cell growth on stimulation” value (RT112 cells) was “doubled”.
